This is an account of results in patent US20160279199A1, “PHARMACEUTICAL COMPOSITION FOR TREATING A METABOLIC SYNDROME” (Sanofi, priority 2010, published 2016).

No end group written: not given here.

The test system of assay [1] is db/db mice. In words: Oral glucose tolerance test (OGTT) in treated db/db mice. It is filed as in vivo, mouse. Particulars: after 21 days s.c. once daily (AVE0010 0.05, FGF-21 0.75, combination 0.75+0.05 mg·kg−1·day−1), fasted, 2 g·kg−1 oral glucose, vs vehicle treated obese control, FIG. 5. The method, then:
(§1) Female db/db mice (BKS.Cg-m +/+ Leprdb/J, age of 6 weeks) were treated with vehicle (PBS), 0.05 mg·kg^−1·day^−1 AVE0010, 0.75 mg·kg^−1·day^−1 recombinant human FGF-21 (SEQ ID NO: 2) or a combined dose of FGF-21 (SEQ ID NO: 2) and AVE0010 (SEQ ID NO:9), (0.75+0.05 mg·kg^−1·day^−1) subcutaneously once daily. Mice were fed ad libitum. Before the first treatment, after one week and 4 weeks blood glucose and HbA1c were measured under fed conditions. After 21 days of treatment an oral glucose tolerance test (OGTT) was initiated. Fasted mice were orally challenged with 2 g·kg^−1 glucose solution and blood glucose was measured at indicated time points.

For assay [2], the system named is db/db mice. The experiment in a line: Fed blood glucose during treatment of db/db mice. The class given is in vivo, mouse. The note with it: s.c. once daily (AVE0010 0.05, FGF-21 0.75, combination 0.75+0.05 mg·kg−1·day−1), up to 4 weeks, FIG. 6. The protocol: as §1
A further assay deals with Type 2 diabetic patients. Particulars: cited from earlier work; for fasting hyperglycaemia: doses elevating plasma concentrations to approximately 3-4 fold physiological postprandial levels, Type 2 diabetic patients.
[3] abbreviates: human subjects with Type 2 diabetes.

As for “AVE0010: GLP-1R agonist peptide, amino acid sequence SEQ ID NO: 9 [reference compound]”, the “glucose tolerance (OGTT)” value with db/db mice [1] is listed as “small improvement in glucose tolerance”. Also, the blood glucose entry with db/db mice [2] is recorded as “inhibition of blood glucose increase”. In the case of “GLP-1(7-27): bioactive GLP-1 form as printed in b13 (HAEGTFTSDVSSYLEGQAAKE; Glucagon-like peptide 1; UniProt P01275 98-118, looked up, fragment)”, the fasting hyperglycaemia result in the assay on Type 2 diabetic patients is listed as “fully normalizes”.

Consider “GLP-1(7-36 amide): bioactive GLP-1, amino acid sequence SEQ ID NO: 4 (HAEGTFTSDVSSYLEGQAAKEFIAWLVKGR-NH2)”, for which the fasting hyperglycaemia entry with Type 2 diabetic patients is “fully normalizes”. With “GLP-1: gut peptide glucagon-like peptide-1, an incretin hormone (HAEGTFTSDVSSYLEGQAAKEFIAWLVKGR; ends and bridges not checked; UniProt P01275 98-127, looked up)”, in the assay with Type 2 diabetic patients (setting [3]), the blood glucose entry is recorded as “reduces” and the insulin secretion entry was “stimulates”.
